# According to patent US10626368B2, “Method for inducing cerebral cortex neurons” (KYOTO UNIVERSITY, priority 2015, dated 2020):
# Key:
# iPS cells (836B1) = test: Immunostaining for CoupTF1 and Ctip2 on day 46, suspension culture with various WNT inhibitors (Example 4); type: cell-based, human; conditions: 50 nM C59, 100 nM LGK-974, 1 μM ICG-001, day 46; C59 and LGK-974 compared with each other
# Method: On the day before induction of differentiation, in order to separate the iPS cells (836B1), which had been cultured in a culture medium to which 10 μM Y-27632 had been added, from the SNL feeder cells, the SNL cells were removed with CTK and the remaining cells were then dissociated using Accumax. The cells were transferred on a 96-well plate (Lipidure-coat 96-well plate) in an amount of 9×10^3 cells per well. Thereafter, the cells were subjected to a suspension culture in DMEM/F12 comprising 50 μM Y-27632, 10 μM SB43152, 10 ng/ml bFGF, various types of Wnt inhibitors (50 nM C59, 100 nM LGK-974, or 1 μM ICG-001 (Cellagen Technology)), 100 nM LDN193189, 10% KSR, 0.1 mM MEM non-essential amino acid, 0.1 mM 2-mercaptoethanol, and 2 mM L-Gln (initiation of differentiation induction, day 0). […] Three days later, the medium was exchanged with DMEM/F12 comprising various types of WNT inhibitors (C59, LGK-974, or ICG-001), 100 nM LDN193189, 10% KSR, 0.1 mM MEM non-essential amino acid, 0.1 mM 2-mercaptoethanol, and 2 mM L-Gln (day 6). Thereafter, the medium was exchanged with a fresh one of the same type every 3 days, and the culture was carried out for 18 days after the initiation of differentiation induction (day 18).
# A half of the medium on day 18 was removed by aspiration, and thereafter, Neurobasal, to which B27, 2 mM L-Gln, and 10 units/ml penicillin and streptomycin had been added, was added in the same amount as the removed medium to the remaining medium. Likewise, a half amount of the medium was exchanged on day 21. On day 24, the cells were transferred on a petri dish, and thereafter, a half of the medium was exchanged every 3 or 4 days. On day 46, the obtained cells were immunostained using antibodies against CoupTF1 and Ctip2. […] From the aforementioned results, it was confirmed that nerve cells existing in the desired corticocerebral motor area can be induced even by utilizing the WNT inhibitor LGK-974 having a similar action to C59.
# [1] = system: ES cells or the iPS cells; test: qPCR of marker gene expression in cells differentiated with added inhibitors; type: cell-based, human; conditions: 10 nM C59, spheres, qPCR
# Description: Human ES cells (KhES-1) were obtained from Institute for Frontier Medical Sciences, Kyoto University (Suemori H, et al. Biochem Biophys Res Commun. 345: 926-32, 2006). The human iPS cells 404C2 are cells obtained by introducing Oct3/4, Sox2, Klf4, L-MYC, LIN28 and p53shRNA into human fibroblasts, using an episomal vector, and these cells were obtained from Professor Yamanaka et al. in Kyoto University (Okita, et al, Nat Methods. 8: 409-412, 2011). The human iPS cells 836B1 are cells obtained by introducing Oct3/4, Sox2, Klf4, L-MYC, LIN28, GLIS1 and p53shRNA into human fibroblasts, using an episomal vector, and these cells were obtained from Professor Yamanaka et al. in Kyoto University. The ES cells and the iPS cells were cultured on SNL cells (Takahashi K, et al, Cell. 131: 861-872, 2007).
# On the day before induction of differentiation, in order to separate the ES cells or the iPS cells, which had been cultured in a culture medium to which 10 μM Y-27632 (WAKO) had been added, from the SNL feeder cells, the SNL cells were removed with CTK and the remaining cells were then dissociated using Accumax (ICT). The cells were transferred on a 96-well plate (Lipidure-coat 96-well plate (NOF Corporation)) in an amount of 9×10^3 cells per well. Thereafter, the cells were subjected to a suspension culture in DMEM/F12 (WAKO) comprising 50 μM Y-27632 (WAKO), 10 μM SB43152 (Sigma), 10 ng/ml bFGF (Invitrogen), various types of Wnt inhibitors (DKK1 (R & D, 500 ng/ml), C59 (Cellagen Technology, 2-10 nM), XAV (Stemgent, 500 nM-2 μM) or IWP4 (Stemgent, 500 nM-2.5 μM)), LDN193189 (Stemgent), KSR (Invitrogen), 0.1 mM MEM non-essential amino acid (Invitrogen), 0.1 mM 2-mercaptoethanol (WAKO), and 2 mM L-Gln (Invitrogen) (initiation of differentiation induction, day 0). […] Three days later, the medium was exchanged with DMEM/F12 (WAKO) comprising various types of Wnt inhibitors (DKK1, C59, XAV or IWP4 (Stemgent)), LDN193189 (Stemgent), KSR (Invitrogen), 0.1 mM MEM non-essential amino acid (Invitrogen), 0.1 mM 2-mercaptoethanol (WAKO), and 2 mM L-Gln (Invitrogen) (day 6). Thereafter, the medium was exchanged with a fresh one of the same type every 3 days, and the culture was carried out for 18 days after the initiation of differentiation induction (day 18).
# The obtained cell mass was transferred on a dish (24-well plate (BD)) coated with 50 μg/ml ornithine (Sigma), 5 μg/ml laminin (Sigma) and 5 μg/ml fibronectin (BD Bioscience Pharmingen), and the culture was continued in Neurobasal (Invitrogen), to which B27 (Invitrogen), 2 mM L-Gln, and 10 units/ml penicillin and streptomycin (Invitrogen) had been added. The culture was carried out for, at maximum, 46 days after the initiation of differentiation induction. It is to be noted that the medium was exchanged with a fresh one every 2 or 3 days.
# In the above-described induction method, 500 ng/ml DKK1, 2 nM C59, 500 nM XAV or 500 nM IWP4 was added as a Wnt inhibitor to the cells, and the obtained mixture was then cultured for 18 days. Thereafter, the expression levels of Six3 (forebrain marker), Sox1 (neuroectodermal marker), Foxg1 (cerebral cortex-forming factor), Lhx2 (cerebral cortex-forming factor), Emx2 (forebrain back portion marker), CoupTF1 (forebrain back portion marker) and Pax6 (forebrain front portion marker) genes in the cultured cells were measured by a qPCR method (FIG. 2).
# The concentration of C59 used as a Wnt inhibitor in the above-described induction method was examined. Specifically, without using C59, or using 2.5 nM, 10 nM and 1 μM C59, the cells were cultured for 18 days. […] The obtained spheres were subjected to immunostaining of using an antibody against Pax6. […] Furthermore, the expression levels of the Foxg1, Lhx2, Emx2 and CoupTF1 genes in the obtained spheres were measured according to a qPCR method (FIG. 4B). As a result, the expression level of CoupTF1 was low and the expression levels of Lhx2 and Foxg1 were high in the case of using 10 nM C59. […]
compound,measurement,setting,value
Cc1cc(-c2ccc(CC(=O)Nc3ccc(-c4cccnc4)cc3)cc2)ccn1 [C59],efficiency of inducing CoupTF1-negative Ctip2-positive cells,iPS cells (836B1),not found a large difference
same,expression level of CoupTF1,[1],low
same,expression level of Foxg1,[1],high
same,expression level of Lhx2,[1],high
